Experimental data: patent US9254274B2, “Method of treating Tourette'S disorder with GABA-aminotransferase inactivators” (CATALYST PHARMACEUTICAL PARTNERS, priority 2012, dated 2016)
Entries after “also recorded” stand apart in the source; their conditions may differ. Where two headings read alike, the source gives them in different places.

What was measured:
[1] = biological target: γ-aminobutyric acid aminotransferase (GABA-AT) (Sus scrofa, UniProt P80147); settings: cited from earlier work
brain GABA levels = settings: human, single dose; cited from earlier work
[2] = biological target: neuronal GABA transporter (Mus musculus, UniProt P31648); settings: Ludwig et al 1999; cited from earlier work
[3] = test system: patient diagnosed with Tourettes's Disorder (TD); assay: Clinical observations: single patient with Tourette's Disorder treated with vigabatrin; format: in vivo, human
From the text: The following instruments will be used to assess diagnosis and symptom severity at baseline: • a) SCID-CT. A clinician administered, semi-structured diagnostic interview specifically developed for use in clinical trials with adults • b) Yale Global Tic Severity Scale (Y-GTSS) (Leckman et al, 1989). The primary outcome measure for tic assessment is this investigator administered Global Severity score (sum of Total Tic score and TD Impairment score) on the Y-GTSS. It includes measures of tic frequency and severity and is widely used in drug efficacy trials involving TD. • c) Yale-Brown Obsessive Compulsive Scale (Y-BOCS) (Goodman et al, 1989). The Y-BOCS is a primary outcome measure of OCD symptoms and is rated by a study investigator. • d) Clinical Global Impression for Tics (Tics-CGI) (Leckman et al, 1988), for ADHD (ADHD-CGI), and for OCD (OCD-CGI) (Guy et al, 1976). Rated by the investigator. Global Improvement (1=very much improved, to 7=very much worse) scales. At intake, only the severity can be rated. In subsequent assessments, both severity and improvement will be rated. A CGI improvement of 1 (very much) or 2 (much) improved is considered to be an acceptable response to acute treatment as is a clinical severity rating of ≦3. • e) DSM-IV-TR Global Assessment of Functioning Scale (GAF) (APA DSM-IV-TR, 2000). The investigator-rated GAF ranges from 1-100, with scores over 70 indicating normal adjustment, and below 60, clinically significant impairment. • f) Hamilton Depression Scale. A clinician-rated scale used as a screening and diagnostic tool and a measure of severity of […] in adults, which has been widely used in clinical trials of young adults with MDD. • g) Hamilton Anxiety Scale. A clinician-rated scale used as a screening and diagnostic tool and a measure of severity of […] in adults, which has been widely used in clinical trials of young adults with MDD. • h) Conners Adult ADHD Rating Scale (CAARS:SL) Systematic self-report of ADHD symptoms in adults. • i) Adverse Events Form (SMURF) is completed at every visit to document all adverse events that occur during the study. • j) Demographics: Demographics and family history information are collected systematically during the Screening/Baseline Phase. • k) Vital signs, Weight and Height (pulse, blood pressure, weight, and height) will be assessed at every visit. • l) Abnormal Involuntary Movement Scale (AIMS) An investigator rated scale of abnormal involuntary movements including tardive dyskinesia. • m) Opthalmological evaluation including visual fields testing Visit 2 (Treatment Week 0):
A single patient diagnosed with Tourettes's Disorder (TD) was treated with vigabatrin for a period of about ten months. Subject is a person with a longstanding history of severe TD. Their course was characterized by typical attenuation of symptoms in late adolescence/early adulthood with an unusual, but not rare, acceleration of symptoms to lifetime peak severity in the last several years. This exacerbation occurred in temporal association with several significant life stressors. Marking the severity of their TD course was a history of fractured rib secondary to a truncal tic, inability to take public transportation, and inability to find steady work in their profession. […] They were on tetrabenazine at the time of referral to the study, but their response to this medication was limited by depressed mood symptoms and moderate fatigue.
Baseline Yale Global Tic Severity Score (YGTSS) score indicated a total motor score of 22, and a total vocal score of 17, for a total tic score (TTS) of 39 and a tic-related impairment score of 40; global severity was 79. Global Assessment of Functioning (GAF) score at baseline was 50.

Sequence of γ-aminobutyric acid aminotransferase (GABA-AT) (P80147 29-500): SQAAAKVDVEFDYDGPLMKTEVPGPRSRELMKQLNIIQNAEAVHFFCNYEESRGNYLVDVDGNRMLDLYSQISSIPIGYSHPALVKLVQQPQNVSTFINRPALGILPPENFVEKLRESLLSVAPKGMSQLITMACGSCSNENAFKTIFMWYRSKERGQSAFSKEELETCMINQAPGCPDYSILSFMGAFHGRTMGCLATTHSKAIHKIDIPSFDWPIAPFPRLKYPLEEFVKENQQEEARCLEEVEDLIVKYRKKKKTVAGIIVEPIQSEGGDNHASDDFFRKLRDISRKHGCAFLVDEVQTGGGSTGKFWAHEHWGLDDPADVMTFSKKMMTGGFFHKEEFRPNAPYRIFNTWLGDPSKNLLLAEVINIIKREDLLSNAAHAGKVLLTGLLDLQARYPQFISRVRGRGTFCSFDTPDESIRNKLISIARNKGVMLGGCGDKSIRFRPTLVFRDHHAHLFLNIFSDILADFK

Q: What does the source list for `C=C1C[C@H](C(=O)O)C[C@@H]1N` [Compound 2, (1S,3S)-3-amino-4-methylenyl-1-cyclopentanoic acid]?
A: GABA-AT inactivation ([1]; 2-mercaptoethanol added to the incubation mixture): no inactivation occurred; GABA-AT inactivation ([1]; without 2-mercaptoethanol): inactivation of GABA-AT was observed

Q: Which “specificity constant as GABA-AT substrate relative to GABA” value [1] does the source give for `N[C@@H]1C=C[C@H](C(=O)O)C1` [compound 1, (1R,4S)-4-amino-cyclopent-2-ene-1-carboxylic acid] here?
A: Its value is “almost five times greater than that of GABA”.

Q: For `C=CC(N)CCC(=O)O` (stereo not drawn) [vigabatrin, γ-vinyl GABA], which “brain GABA levels after administration” value (brain GABA levels) is on record?
A: The value was “remain substantially elevated for several days”.

Q: What about the “inhibition of GABA uptake” value [2] of the same compound?
A: The value was “inhibits GABA uptake”.

Q: What about the “tic severity, overall clinical outcome” value [3] of the same compound?
A: The value was “clinically significant and meaningful improvement in their tic severity”.

Q: What about the “YGTSS total tic score (TTS)” value ([3]; GVG 2 grams, week 2, baseline TTS 39) of the same compound?
A: The value was 31.

Q: And the “YGTSS total tic score (TTS)” value ([3]; GVG 3 grams, week 3, baseline TTS 39)?
A: Its value is 27.

Q: What about the “YGTSS total tic score (TTS)” value ([3]; GVG 3 grams, week 4, baseline TTS 39) of the same compound?
A: The value was 24.

Q: And the “YGTSS total tic score (TTS)” value ([3]; GVG 3 grams, week 5, baseline TTS 39)?
A: Its value is 21.

Q: What about the “YGTSS total tic score (TTS)” value ([3]; GVG 3 grams, week 7, baseline TTS 39) of the same compound?
A: Its value is 24.

Q: And the “adverse effect” value ([3]; GVG up to 3 grams, listed as GVG)?
A: The value was “minimal: tiredness and fatigue starting at 2 grams, which gradually attenuated; also recorded: mild and non-limiting adverse effect of fatigue”.

Q: And the “eye exam” value ([3]; at 7 weeks, overall, listed as GVG)?
A: The value was “normal, and showed no change from baseline; also recorded: unchanged and within normal limits”.

Q: And the “YGTSS total tic score (TTS)” value ([3]; week 1, dose figure not printed ('gram'), baseline TTS 39)?
A: Its value is 29.

Q: And the “Global Assessment of Functioning (GAF) score” value ([3]; week 7, baseline GAF 50)?
A: The value was 65.
